Laboratory results reported in patent US7585895B2, “Therapeutic substituted cyclopentanes” (Allergan, Inc., priority 2005, dated 2009).

Experiments:
Type in all cases: cell-based
hFP = molecular target: T1, hFP (Homo sapiens, UniProt P43088); test: FLIPR calcium signal, FP; conditions: HEK-293(EBNA)
T1 construct: expressed in transfected cells
Summary of the method: (§1)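 Stably transfected HEK-293(EBNA) cells loaded with 2 μM Fluo-4 AM in HBSS-HEPES pH 7.4, 37° C; peak fluorescence rise after compound addition (FLIPR, 488 nm excitation) expressed relative to buffer and standard agonist controls (PGE2 for EP subtypes, U-46619 for TP). Tested 10^−5 to 10^−11 M, duplicates, n≧3.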

hEP1 = molecular target: T2, hEP1 (Homo sapiens, UniProt P34995); test: FLIPR calcium signal, EP1; conditions: HEK-293(EBNA)
T2 construct: expressed in transfected cells
T2 sequence (P34995 1-402): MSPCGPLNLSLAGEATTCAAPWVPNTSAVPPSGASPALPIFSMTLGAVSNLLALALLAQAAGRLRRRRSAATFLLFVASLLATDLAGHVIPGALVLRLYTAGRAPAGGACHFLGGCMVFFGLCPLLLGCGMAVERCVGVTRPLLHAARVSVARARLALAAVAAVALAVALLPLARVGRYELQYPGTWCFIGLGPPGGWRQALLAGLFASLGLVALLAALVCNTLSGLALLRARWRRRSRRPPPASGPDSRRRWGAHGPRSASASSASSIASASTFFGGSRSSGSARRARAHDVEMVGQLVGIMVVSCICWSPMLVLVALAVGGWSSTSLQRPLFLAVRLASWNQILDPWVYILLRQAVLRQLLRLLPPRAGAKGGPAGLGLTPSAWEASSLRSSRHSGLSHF
Summary of the method: as §1

hEP3A/Gqi5 = molecular target: T3, hEP3A/Gqi5 (Homo sapiens, UniProt P43115); test: FLIPR calcium signal, EP3; conditions: HEK-293(EBNA); for EC50: read-out: Ca2+ Signal-EC50 (nM) EP3
T3 construct: expressed in transfected cells
T3 sequence (P43115 1-390): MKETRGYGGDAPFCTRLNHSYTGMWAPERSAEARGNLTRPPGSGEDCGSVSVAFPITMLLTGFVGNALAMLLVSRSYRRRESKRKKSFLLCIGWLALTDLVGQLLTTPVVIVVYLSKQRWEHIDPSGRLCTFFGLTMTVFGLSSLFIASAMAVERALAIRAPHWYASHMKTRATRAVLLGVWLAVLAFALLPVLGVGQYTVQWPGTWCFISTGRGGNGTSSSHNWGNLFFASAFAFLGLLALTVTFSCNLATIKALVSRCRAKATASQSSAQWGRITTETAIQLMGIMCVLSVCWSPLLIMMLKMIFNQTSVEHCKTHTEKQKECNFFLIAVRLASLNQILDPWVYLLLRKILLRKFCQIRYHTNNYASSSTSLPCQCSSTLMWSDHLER
Summary of the method: as §1

hEP4/Gqs5 = molecular target: T4, hEP4/Gqs5 (Homo sapiens, UniProt P35408); test: FLIPR calcium signal, EP4; conditions: HEK-293(EBNA); for EC50: read-out: Ca2+ Signal-EC50 (nM) EP4
T4 construct: expressed in transfected cells
T4 sequence (P35408 whole entry): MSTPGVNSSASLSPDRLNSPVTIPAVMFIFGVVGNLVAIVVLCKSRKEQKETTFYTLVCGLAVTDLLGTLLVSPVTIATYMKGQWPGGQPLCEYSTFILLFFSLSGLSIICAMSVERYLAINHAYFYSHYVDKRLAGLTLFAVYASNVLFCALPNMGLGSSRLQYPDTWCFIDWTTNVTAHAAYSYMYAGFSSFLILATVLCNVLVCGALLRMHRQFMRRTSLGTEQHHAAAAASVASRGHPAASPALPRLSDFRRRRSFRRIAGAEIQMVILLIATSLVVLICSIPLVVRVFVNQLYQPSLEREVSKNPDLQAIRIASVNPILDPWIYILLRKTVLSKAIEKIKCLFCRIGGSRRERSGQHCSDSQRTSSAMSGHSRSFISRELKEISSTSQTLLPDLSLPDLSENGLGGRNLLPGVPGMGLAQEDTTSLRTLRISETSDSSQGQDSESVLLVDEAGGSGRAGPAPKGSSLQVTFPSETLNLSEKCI
Summary of the method: as §1

hTP = molecular target: T5, hTP (Homo sapiens, UniProt P21731); test: FLIPR calcium signal, TP; conditions: HEK-293(EBNA); for EC50: read-out: Ca2+ Signal-EC50 (nM) TP
T5 construct: expressed in transfected cells
T5 sequence (P21731 1-343): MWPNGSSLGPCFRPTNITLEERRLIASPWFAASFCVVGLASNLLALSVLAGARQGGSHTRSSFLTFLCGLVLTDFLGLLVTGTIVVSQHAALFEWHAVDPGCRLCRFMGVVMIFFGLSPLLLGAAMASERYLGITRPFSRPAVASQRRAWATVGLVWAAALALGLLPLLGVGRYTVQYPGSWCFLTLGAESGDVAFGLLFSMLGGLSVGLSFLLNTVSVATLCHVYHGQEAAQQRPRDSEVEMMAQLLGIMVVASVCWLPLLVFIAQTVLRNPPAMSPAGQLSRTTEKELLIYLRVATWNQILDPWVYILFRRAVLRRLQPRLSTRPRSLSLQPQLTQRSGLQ
Summary of the method: as §1

EP2 = EP2 (Homo sapiens, UniProt P43116); test: cAMP assay, HEK-EBNA cells expressing EP2; design: expressed in transfected cells; host or cells: HEK-EBNA; conditions: value in parentheses in EP2 column, read-out: EP2 EC50 (nM), measurement of cAMP (data in parentheses)
Sequence of EP2 (P43116 whole entry): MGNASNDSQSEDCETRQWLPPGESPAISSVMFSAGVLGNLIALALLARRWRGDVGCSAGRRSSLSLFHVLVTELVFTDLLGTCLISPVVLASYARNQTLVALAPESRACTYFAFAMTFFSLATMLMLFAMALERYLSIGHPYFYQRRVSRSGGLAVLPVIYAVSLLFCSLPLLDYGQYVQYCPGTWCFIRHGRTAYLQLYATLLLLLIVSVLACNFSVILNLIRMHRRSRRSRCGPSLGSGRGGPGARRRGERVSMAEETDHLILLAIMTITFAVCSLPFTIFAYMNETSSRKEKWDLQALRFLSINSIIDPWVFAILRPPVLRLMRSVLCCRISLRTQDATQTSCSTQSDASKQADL
Summary of the method: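 HEK-EBNA cells expressing EP2 (10^4 cells per well) were stimulated for 30 min at room temperature with compound in HBSS containing 0.1% BSA, 0.5 mM IBMX and 5 mM HEPES, pH 7.4. Compounds ran in 16-point serial dilutions in triplicate. cAMP was detected by AlphaScreen competition between anti-cAMP acceptor beads and biotin-cAMP/streptavidin donor beads.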

T1 sequence (P43088 whole entry): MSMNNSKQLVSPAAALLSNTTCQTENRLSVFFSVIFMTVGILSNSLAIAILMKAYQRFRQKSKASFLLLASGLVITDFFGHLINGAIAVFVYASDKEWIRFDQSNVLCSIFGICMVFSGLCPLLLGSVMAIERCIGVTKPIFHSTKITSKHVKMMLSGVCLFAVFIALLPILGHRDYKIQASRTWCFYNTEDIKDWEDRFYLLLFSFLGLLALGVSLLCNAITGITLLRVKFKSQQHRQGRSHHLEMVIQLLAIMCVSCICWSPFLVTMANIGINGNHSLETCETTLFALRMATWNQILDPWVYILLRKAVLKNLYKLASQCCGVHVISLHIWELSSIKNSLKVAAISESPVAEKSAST

Ca2+ Signal-EC50 (nM) FP (hFP) | EC50 (hEP1; read-out: Ca2+ Signal-EC50 (nM) EP1) [nM] | EC50 (hEP3A/Gqi5) [nM] | EC50 (hEP4/Gqs5) [nM] | Ca2+ Signal-EC50 (nM) TP (hTP) | EC50 (EP2) [nM] | Ca2+ Signal-EC50 (nM) EP1 (hEP1) | Ca2+ Signal-EC50 (nM) EP4 (hEP4/Gqs5) | Ca2+ Signal-EC50 (nM) EP3 (hEP3A/Gqi5) | EC50 (hTP) [nM] | Compound
not active | 4520 | 8830 | > 10000 | not active | 628 | – | – | – | – | O=C(O)CCCCCC[C@@H]1[C@@H](c2ccc(C(O)CCc3ccccc3)cc2)[C@H](O)C[C@H]1Cl (stereo partly drawn) [Entry 24, 7-{(1R,2S,3R,5R)-5-Chloro-3-hydroxy-2-[4-(1-hydroxy-3-phenyl-propyl)-phenyl]-cyclopentyl}-heptanoic acid]
not active | – | 5930 | – | not active | 12 | not active | not active | – | – | CCCCCCC(O)c1ccc([C@@H]2[C@@H](C/C=C\CCCC(=O)O)[C@H](Cl)C[C@H]2O)cc1 (stereo partly drawn) [Entry 25, (Z)-7-{(1R,2S,3R,5R)-5-Chloro-3-hydroxy-2-[4-(1-hydroxy-heptyl)-phenyl]-cyclopentyl}-hept-5-enoic acid]
not active | – | – | – | not active | 7 | not active | not active | not active | – | CCCC(O)c1ccc([C@@H]2[C@@H](C/C=C\CCCC(=O)O)[C@H](Cl)C[C@H]2O)cc1 (stereo partly drawn) [Entry 26, (Z)-7-{(1R,2S,3R,5R)-5-Chloro-3-hydroxy-2-[4-(1-hydroxy-butyl)-phenyl]-cyclopentyl}-hept-5-enoic acid]
not active | – | – | – | not active | 9 | not active | not active | not active | – | O=C(O)CCC/C=C\C[C@@H]1[C@@H](c2ccc(C(O)c3ccccc3)cc2)[C@H](O)C[C@H]1Cl (stereo partly drawn) [Entry 28, (Z)-7-{(1R,2S,3R,5R)-5-Chloro-3-hydroxy-2-[4-(hydroxy-phenyl-methyl)-phenyl]-cyclopentyl}-hept-5-enoic acid]
not active | – | 37 | – | not active | 38 | not active | not active | – | – | CCCCCC(O)c1cccc([C@@H]2[C@@H](C/C=C\CCCC(=O)O)[C@H](Cl)C[C@H]2O)c1 (stereo partly drawn) [Entry 29, (Z)-7-{(1R,2S,3R,5R)-5-Chloro-3-hydroxy-2-[3-(1-hydroxy-hexyl)-phenyl]-cyclopentyl}-hept-5-enoic acid]
not active | – | 23 | – | – | 10 | not active | not active | – | 3750 | CCCCC(O)c1cccc([C@@H]2[C@@H](C/C=C\CCCC(=O)O)[C@H](Cl)C[C@H]2O)c1 (stereo partly drawn) [Entry 30, (Z)-7-{(1R,2S,3R,5R)-5-Chloro-3-hydroxy-2-[3-(1-hydroxy-pentyl)-phenyl]-cyclopentyl}-hept-5-enoic acid]
not active | – | 1300 | – | not active | 19 | not active | not active | – | – | CCCCCC(O)C(C)(C)c1ccc([C@@H]2[C@@H](C/C=C\CCCC(=O)O)[C@H](Cl)C[C@H]2O)cc1 (stereo partly drawn) [Entry 31, (Z)-7-{(1R,2S,3R,5R)-5-Chloro-3-hydroxy-2-[4-(2-hydroxy-1,1-dimethyl-heptyl)-phenyl]-cyclopentyl}-hept-5-enoic acid]
not active | – | – | > 10000 | not active | 27 | not active | – | not active | – | CCCCCCc1ccc([C@@H]2[C@@H](C/C=C\CCCC(=O)O)[C@H](Cl)C[C@H]2O)cc1 [Entry 33, (Z)-7-[(1R,2S,3R,5R)-5-Chloro-2-(4-hexyl-phenyl)-3-hydroxy-cyclopentyl]-hept-5-enoic acid]
not active | – | 25 | – | – | 5 | not active | not active | – | 6930 | CCCCCC(O)c1ccc([C@@H]2[C@@H](C/C=C\CCCC(=O)O)[C@H](Cl)C[C@@H]2O)cc1 (stereo partly drawn) [Entry 34, (Z)-7-{(1R,2S,3S,5R)-5-Chloro-3-hydroxy-2-[4-(1-hydroxy-hexyl)-phenyl]-cyclopentyl}-hept-5-enoic acid]
